# Data as given in ChEMBL document CHEMBL2390840, “An analysis of the synthetic tryptamines AMT and 5-MeO-DALT: emerging 'Novel Psychoactive Drugs'” (Bioorg Med Chem Lett, 2013).
# Key:
# [1] = biological target: T1, 5-hydroxytryptamine receptor 2A (Homo sapiens, UniProt P28223); experiment: Displacement of [3H]Ketanserin from human recombinant 5-HT2A receptor expressed in HEK293T cells after 1 to […] by scintillation counting analysis; type: cell-based, HEK-293T
# [2] = biological target: T1, 5-hydroxytryptamine receptor 2A; experiment: Agonist activity at human 5-HT2A receptor expressed in HEK293 cells assessed as increase in calcium mobilization by FLIPR assay; type: functional, cell-based
# [3] = biological target: Alpha-1B adrenergic receptor (Homo sapiens, UniProt P35368); experiment: Displacement of [3H]Prazosin from human recombinant adrenergic alpha1B receptor expressed in HEK293 cells after 1 to […] by scintillation counting analysis; type: cell-based
# [4] = biological target: T2, Sodium-dependent noradrenaline transporter (Homo sapiens, UniProt P23975); experiment: Inhibition of [3H]norepinephrine uptake at human NET expressed in HEK293 cells preincubated for 10 mins prior to substrate addition measured after 4 mins by […]; type: cell-based
# [5] = biological target: 5-hydroxytryptamine receptor 1B (Homo sapiens, UniProt P28222); experiment: Displacement of [3H][…] from human recombinant 5-HT1B receptor expressed in HEK293 cells after 1 to […] by scintillation counting analysis; type: cell-based
# [6] = Displacement of [3H]DTG from sigma 2 receptor in rat PC12 cells after 1 to […] by scintillation counting analysis; type: cell-based; settings: pc-12
# [7] = biological target: Alpha-2C adrenergic receptor (Homo sapiens, UniProt P18825); experiment: Displacement of [3H]Clonidine from human recombinant adrenergic alpha2C receptor expressed in MDCK cells after 1 to […] by scintillation counting analysis; type: cell-based
# D(2) dopamine receptor = D(2) dopamine receptor (Homo sapiens, UniProt P14416); experiment: Displacement of [3H]N-methylspiperone from human recombinant dopamine D2 receptor expressed in HEK293 cells after 1 to […] by scintillation counting analysis; type: cell-based
# [8] = biological target: Alpha-2B adrenergic receptor (Homo sapiens, UniProt P18089); experiment: Displacement of [3H]Clonidine from human recombinant adrenergic alpha2B receptor expressed in HEK293T cells after 1 to […] by scintillation counting analysis; type: cell-based, HEK-293T
# D(3) dopamine receptor = D(3) dopamine receptor (Homo sapiens, UniProt P35462); experiment: Displacement of [3H]N-methylspiperone from human recombinant dopamine D3 receptor expressed in HEK293 cells after 1 to […] by scintillation counting analysis; type: cell-based
# [9] = biological target: Alpha-1A adrenergic receptor (Homo sapiens, UniProt P35348); experiment: Displacement of [3H]Prazosin from human recombinant adrenergic alpha1A receptor expressed in HEK293 cells after 1 to […] by scintillation counting analysis; type: cell-based
# [10] = biological target: T2, Sodium-dependent noradrenaline transporter; experiment: Displacement of [3H]Nisoxetine from human recombinant norepinephrine transporter expressed in HEK293 cells after 1 to […] by scintillation counting analysis; type: cell-based
# T1 sequence (P28223 whole entry): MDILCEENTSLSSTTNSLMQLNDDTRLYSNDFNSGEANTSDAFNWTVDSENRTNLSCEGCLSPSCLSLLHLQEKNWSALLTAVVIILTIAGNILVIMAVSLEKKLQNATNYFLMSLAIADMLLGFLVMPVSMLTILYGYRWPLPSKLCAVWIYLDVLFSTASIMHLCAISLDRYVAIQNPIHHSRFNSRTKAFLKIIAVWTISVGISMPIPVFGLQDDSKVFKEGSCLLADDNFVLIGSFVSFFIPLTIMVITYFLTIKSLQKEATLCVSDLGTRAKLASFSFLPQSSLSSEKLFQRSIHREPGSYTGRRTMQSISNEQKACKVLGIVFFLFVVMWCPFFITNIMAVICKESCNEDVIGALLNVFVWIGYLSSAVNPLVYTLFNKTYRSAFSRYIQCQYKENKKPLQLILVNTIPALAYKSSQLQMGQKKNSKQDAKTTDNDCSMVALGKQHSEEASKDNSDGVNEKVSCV
# T2 sequence (P23975 whole entry): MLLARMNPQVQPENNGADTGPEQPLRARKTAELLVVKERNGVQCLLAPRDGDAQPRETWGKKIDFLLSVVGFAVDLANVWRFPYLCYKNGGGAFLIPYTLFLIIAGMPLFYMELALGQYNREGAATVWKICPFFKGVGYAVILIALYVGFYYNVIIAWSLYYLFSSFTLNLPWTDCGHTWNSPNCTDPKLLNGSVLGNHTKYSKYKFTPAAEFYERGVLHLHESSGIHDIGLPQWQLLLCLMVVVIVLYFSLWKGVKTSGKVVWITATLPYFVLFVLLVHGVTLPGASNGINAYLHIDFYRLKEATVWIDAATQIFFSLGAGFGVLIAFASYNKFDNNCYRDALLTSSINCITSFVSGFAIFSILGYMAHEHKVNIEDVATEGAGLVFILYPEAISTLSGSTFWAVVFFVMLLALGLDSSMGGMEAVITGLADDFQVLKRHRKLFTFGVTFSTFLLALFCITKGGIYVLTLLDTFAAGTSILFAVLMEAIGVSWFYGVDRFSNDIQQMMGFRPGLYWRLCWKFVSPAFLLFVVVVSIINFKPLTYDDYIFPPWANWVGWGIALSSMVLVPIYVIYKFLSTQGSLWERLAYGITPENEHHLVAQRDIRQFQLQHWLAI
# Alpha-1A adrenergic receptor, sequence (P35348 whole entry): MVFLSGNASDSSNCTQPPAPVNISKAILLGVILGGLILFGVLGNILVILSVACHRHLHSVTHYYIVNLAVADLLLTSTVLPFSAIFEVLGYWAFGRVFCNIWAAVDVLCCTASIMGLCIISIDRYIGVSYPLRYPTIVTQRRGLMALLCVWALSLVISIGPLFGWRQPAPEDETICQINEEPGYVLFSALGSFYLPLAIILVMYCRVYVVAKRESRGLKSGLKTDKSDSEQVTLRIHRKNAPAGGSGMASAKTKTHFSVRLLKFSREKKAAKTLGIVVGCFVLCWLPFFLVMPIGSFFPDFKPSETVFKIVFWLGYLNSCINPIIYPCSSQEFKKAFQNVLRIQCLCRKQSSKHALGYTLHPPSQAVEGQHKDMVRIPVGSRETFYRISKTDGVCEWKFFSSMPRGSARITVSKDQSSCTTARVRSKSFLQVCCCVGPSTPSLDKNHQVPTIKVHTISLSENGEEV
# D(3) dopamine receptor, sequence (P35462 whole entry): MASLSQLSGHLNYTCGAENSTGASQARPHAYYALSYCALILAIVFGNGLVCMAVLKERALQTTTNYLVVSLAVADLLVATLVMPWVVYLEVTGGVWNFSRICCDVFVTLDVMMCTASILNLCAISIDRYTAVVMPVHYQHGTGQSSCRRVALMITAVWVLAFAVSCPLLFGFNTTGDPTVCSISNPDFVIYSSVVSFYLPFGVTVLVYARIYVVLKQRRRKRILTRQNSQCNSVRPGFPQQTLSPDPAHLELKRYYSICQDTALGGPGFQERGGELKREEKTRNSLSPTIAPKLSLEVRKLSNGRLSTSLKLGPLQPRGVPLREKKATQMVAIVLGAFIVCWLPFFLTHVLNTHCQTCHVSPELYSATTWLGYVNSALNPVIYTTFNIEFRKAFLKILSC
# D(2) dopamine receptor, sequence (P14416 whole entry): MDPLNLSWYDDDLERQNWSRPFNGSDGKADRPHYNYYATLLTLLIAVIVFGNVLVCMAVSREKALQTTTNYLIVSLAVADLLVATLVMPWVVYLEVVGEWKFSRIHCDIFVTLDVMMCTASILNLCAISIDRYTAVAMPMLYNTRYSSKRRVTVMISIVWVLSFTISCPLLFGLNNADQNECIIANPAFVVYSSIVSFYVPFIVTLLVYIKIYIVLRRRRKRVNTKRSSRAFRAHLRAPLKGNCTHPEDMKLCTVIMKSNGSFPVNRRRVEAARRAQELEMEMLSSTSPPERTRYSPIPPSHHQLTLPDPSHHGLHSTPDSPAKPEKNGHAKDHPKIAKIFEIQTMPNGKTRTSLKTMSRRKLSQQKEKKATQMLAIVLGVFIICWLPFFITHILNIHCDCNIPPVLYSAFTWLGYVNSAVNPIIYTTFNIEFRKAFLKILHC
# Alpha-1B adrenergic receptor, sequence (P35368 whole entry): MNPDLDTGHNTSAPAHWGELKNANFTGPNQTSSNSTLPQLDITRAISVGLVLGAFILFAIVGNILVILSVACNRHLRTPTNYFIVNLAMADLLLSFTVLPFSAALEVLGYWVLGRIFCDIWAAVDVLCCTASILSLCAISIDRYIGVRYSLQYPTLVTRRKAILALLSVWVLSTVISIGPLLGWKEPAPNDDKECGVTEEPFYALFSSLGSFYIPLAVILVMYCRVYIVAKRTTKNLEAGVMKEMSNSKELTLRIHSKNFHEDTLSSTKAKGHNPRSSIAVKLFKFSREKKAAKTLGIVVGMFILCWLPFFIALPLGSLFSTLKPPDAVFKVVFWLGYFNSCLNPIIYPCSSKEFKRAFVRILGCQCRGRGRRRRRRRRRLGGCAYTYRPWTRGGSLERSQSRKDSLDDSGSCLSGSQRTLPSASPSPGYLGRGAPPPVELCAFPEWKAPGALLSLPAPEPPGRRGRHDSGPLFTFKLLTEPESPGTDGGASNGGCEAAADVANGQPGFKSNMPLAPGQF
# Alpha-2C adrenergic receptor, sequence (P18825 whole entry): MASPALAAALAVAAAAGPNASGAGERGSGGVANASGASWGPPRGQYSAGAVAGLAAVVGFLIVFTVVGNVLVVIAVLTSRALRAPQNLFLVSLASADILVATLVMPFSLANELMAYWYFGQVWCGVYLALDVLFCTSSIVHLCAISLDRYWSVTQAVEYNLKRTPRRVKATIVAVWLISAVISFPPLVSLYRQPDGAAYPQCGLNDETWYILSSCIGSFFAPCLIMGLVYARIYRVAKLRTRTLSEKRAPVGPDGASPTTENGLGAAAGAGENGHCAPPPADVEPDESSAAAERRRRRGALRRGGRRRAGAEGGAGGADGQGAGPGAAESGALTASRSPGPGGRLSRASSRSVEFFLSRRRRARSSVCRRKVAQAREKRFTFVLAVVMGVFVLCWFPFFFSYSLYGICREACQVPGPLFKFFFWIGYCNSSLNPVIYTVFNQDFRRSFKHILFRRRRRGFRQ
# 5-hydroxytryptamine receptor 1B, sequence (P28222 whole entry): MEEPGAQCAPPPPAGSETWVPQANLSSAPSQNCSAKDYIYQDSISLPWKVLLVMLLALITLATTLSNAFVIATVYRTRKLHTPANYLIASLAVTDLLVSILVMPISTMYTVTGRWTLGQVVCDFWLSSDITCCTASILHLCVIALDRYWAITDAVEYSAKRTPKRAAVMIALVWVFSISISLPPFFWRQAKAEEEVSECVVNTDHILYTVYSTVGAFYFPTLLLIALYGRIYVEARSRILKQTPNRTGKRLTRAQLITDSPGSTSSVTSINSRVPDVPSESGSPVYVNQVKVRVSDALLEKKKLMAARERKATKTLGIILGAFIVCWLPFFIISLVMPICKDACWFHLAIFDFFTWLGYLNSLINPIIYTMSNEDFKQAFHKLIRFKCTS
# Alpha-2B adrenergic receptor, sequence (P18089 whole entry): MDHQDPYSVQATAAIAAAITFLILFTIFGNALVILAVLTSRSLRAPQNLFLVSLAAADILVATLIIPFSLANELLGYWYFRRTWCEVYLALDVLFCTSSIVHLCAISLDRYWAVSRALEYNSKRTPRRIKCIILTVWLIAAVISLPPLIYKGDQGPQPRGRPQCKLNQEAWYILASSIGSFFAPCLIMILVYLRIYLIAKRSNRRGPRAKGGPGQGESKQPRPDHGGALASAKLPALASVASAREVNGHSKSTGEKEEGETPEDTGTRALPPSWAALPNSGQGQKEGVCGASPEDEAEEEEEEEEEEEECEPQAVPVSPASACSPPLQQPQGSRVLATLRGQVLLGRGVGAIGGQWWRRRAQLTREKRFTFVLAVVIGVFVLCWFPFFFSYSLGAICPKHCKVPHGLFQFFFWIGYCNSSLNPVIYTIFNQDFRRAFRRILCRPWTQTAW
Structure (SMILES),Ki [1] [µM],EC50 ([2]; read-out: EC50) [µM],EC50 ([2]; read-out: pEC50 (converted)) [µM],Ki [3] [µM],IC50 [4] [µM],Ki [4] [µM],Ki [5] [µM],pKi [6],Ki [7] [µM],Ki (D(2) dopamine receptor) [µM],Ki [8] [µM],Ki (D(3) dopamine receptor) [µM],Ki [9] [µM],Ki [10] [µM]
C=CCN(CC=C)CCc1c[nH]c2ccc(OC)cc12,0.555,0.0028,0.0275,,,,,,,,,,,
CC(N)Cc1c[nH]c2ccccc12 (centres undefined),,,,> 10,3.72,0.642,0.559,< 5,> 10,> 10,> 10,> 10,> 10,> 10
